From patent US8952169B2 (Genentech, Inc., priority 2012, dated 2015)

The compounds below were run against hNav1.7 (Homo sapiens (Human), UniProt Q15858) (assay: Tritiated aryl sulfonamide binding to membranes from cells expressing hNav1.7 and the β1 subunit (competitive binding)). Settings: membranes with hNav1.7 and β1 subunit; [3H]compound displacement, 18 h, room temperature; read-out: NaV1.7 395 Memb Binding (IC50).
Protocol: Tritiated Aryl Sulfonamide Binding to Membranes Isolated from Cells that Heterologously Express hNav1.7 and the β1 Subunit
Preparation of membranes containing recombinantly expressed sodium channels: Frozen recombinant cell pellets were thawed on ice and diluted to 4 times the cell pellet weight with ice cold 50 mM Tris HCl, pH 7.4 buffer. The cell suspensions were homogenized on ice using a motorized glass dounce homogeniser. Homogenates were further diluted 8.4 times with ice cold 50 mM Tris HCl, pH 7.4 buffer and then centrifuged at 200×g at 4° C. for 15 min. The supernatants were collected and centrifuged at 10000×g at 4° C. for 50 min. The pellets were then re-suspended in 100 mM NaCl, 20 mM Tris HCl, pH 7.4 buffer containing 1% v/v protease inhibitors (Calbiochem) and re-homogenized on ice. The homogenized membranes were then processed through a syringe equipped with a 26 gauge needle. Protein concentrations were determined by Bradford Assay and the membranes were stored at −80° C.
Radioligand Binding Studies: Saturation experiments. A representative compound of formula (I) was tritiated. Three tritiums were incorporated in place of methyl hydrogens to generate [^3H]compound. Binding of this radioligand was preformed in 5 mL borosilicate glass test tubes at room temperature. Binding was initiated by adding membranes to increasing concentrations of [^3H]compound in 100 mM NaCl, 20 mM Tris HCl, pH 7.4 buffer containing 0.01% w/v bovine serum albumin (BSA) for 18 h. Non-specific binding was determined in the presence of 1 μM unlabelled compound. After 18 h, the reactants were filtered through GF/C glass fiber filters presoaked in 0.5% w/v polyethylene imine. […] [^3H]compound bound to filters was quantified by liquid scintillation counting.
Competitive binding experiments. Binding reactions were preformed in 96-well polypropylene plates at room temperature for 18 h. In 360 μL, membranes were incubated with 100 μM [^3H]compound and increasing concentrations of Test Compound. Non-specific binding was defined in the presence of 1 μM unlabelled compound. Reactions were transferred and filtered through 96-well glass fiber/C filter plates presoaked with 0.5% polyethylene imine. The filtered reactions were washed 5 times with 200 L ice cold buffer containing 0.25% BSA. Bound radioactivity was determined by liquid scintillation counting.
Data Analysis: For saturation experiments, non-specific binding was subtracted from total binding to provide specific binding and these values were recalculated in terms of pmol ligand bound per mg protein. Saturation curves were constructed and dissociation constants were calculated using the single site ligand binding model: Beq=(Bmax*X)/(X+Kd), where Beq is the amount of ligand bound at equilibrium, Bmax is the maximum receptor density, Kd is the dissociation constant for the ligand, and X is the free ligand concentration.

Sequence of hNav1.7 (Q15858 whole entry, looked up): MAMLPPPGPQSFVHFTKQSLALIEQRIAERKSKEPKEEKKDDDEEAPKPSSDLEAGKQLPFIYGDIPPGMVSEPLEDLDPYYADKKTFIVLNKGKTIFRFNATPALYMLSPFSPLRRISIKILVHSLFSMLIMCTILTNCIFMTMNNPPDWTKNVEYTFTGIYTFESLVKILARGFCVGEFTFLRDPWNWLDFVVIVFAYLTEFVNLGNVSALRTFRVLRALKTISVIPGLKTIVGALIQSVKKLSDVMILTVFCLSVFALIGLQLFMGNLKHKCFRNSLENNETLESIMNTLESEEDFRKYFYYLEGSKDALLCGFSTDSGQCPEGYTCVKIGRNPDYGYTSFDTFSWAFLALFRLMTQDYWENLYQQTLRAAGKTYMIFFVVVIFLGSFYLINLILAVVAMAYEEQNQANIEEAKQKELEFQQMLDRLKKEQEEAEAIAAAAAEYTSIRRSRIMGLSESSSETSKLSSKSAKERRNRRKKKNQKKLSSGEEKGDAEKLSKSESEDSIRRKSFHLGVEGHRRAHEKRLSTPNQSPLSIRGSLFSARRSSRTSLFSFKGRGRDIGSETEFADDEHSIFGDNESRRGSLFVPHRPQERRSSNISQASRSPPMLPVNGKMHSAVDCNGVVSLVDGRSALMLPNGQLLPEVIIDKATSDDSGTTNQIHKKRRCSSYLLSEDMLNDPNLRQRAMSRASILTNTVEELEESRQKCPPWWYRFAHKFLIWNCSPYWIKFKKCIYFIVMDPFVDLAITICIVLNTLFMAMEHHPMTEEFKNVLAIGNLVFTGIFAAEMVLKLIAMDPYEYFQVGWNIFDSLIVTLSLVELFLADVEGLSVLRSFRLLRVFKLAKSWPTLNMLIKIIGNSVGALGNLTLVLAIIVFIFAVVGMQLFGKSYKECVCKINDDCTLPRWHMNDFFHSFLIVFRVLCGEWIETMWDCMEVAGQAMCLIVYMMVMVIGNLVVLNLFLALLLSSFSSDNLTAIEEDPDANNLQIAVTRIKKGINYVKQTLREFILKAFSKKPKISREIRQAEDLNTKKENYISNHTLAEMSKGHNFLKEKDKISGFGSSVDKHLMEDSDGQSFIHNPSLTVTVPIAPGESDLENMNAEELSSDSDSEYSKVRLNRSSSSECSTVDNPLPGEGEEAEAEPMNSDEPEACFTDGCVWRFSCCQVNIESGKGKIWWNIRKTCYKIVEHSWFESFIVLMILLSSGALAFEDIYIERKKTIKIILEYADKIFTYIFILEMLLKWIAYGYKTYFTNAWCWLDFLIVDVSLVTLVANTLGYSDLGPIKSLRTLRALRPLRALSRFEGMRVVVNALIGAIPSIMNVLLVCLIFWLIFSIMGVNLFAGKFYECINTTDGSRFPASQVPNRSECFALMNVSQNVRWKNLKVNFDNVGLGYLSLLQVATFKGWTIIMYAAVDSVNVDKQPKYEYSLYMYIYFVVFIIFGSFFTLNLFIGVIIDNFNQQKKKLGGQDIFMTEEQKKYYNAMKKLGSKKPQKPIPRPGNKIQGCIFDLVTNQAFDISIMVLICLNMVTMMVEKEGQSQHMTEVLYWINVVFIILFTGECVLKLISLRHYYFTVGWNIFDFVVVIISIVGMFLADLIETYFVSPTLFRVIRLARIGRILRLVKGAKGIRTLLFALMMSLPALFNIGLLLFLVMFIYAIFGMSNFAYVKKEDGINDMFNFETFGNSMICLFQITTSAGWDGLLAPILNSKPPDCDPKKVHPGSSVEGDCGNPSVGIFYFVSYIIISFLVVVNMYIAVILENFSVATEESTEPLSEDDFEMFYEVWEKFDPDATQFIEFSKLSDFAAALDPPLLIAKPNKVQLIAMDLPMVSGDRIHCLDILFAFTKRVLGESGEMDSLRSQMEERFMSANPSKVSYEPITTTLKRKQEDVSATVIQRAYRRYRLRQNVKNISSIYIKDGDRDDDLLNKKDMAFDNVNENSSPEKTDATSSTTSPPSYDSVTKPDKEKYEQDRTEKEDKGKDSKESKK
Sequence of hNav1.7 (Q07699 whole entry partner, looked up): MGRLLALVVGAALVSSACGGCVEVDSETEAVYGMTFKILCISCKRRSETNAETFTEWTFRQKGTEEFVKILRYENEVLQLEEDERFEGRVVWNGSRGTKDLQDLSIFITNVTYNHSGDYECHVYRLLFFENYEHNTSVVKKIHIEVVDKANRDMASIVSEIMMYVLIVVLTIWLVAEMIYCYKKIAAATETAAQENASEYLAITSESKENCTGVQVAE

IC50 [nM]	Compound
55	O=C(NS(=O)(=O)N1CCOCC1)c1cc(Cl)c(OCC23CC4CC(CC(C4)C2)C3)cc1F
36	CC(C)(F)c1cc(C(=O)NS(=O)(=O)N2CCC2)c(F)cc1OCC12CC3CC(CC(C3)C1)C2
295	CN(C)S(=O)(=O)NC(=O)c1cc(Cl)c(OCCCC2CCCCC2)cc1F
86	CS(=O)(=O)NC(=O)c1cc(Cl)c(OC[C@H]2CC[C@@H](C(F)(F)F)CC2)cc1F
4	O=C(NS(=O)(=O)C1CC1)c1cc(C2CC2)c(OCC23CCCCC2C3(F)F)cc1F (centres unmarked) [Example 433, 5-cyclopropyl-N-cyclopropylsulfonyl-4-[(7,7-difluoronorcaran-1-yl)methoxy]-2-fluoro-benzamide]
35	O=C(NS(=O)(=O)N1CCC1)c1cc(C2CC2)c(OCC23CC4CC(C2)CC(OC(=O)C(F)(F)F)(C4)C3)cc1F
281	CN(C)S(=O)(=O)NC(=O)c1cc(Cl)c(OC2CCC3(CCCCC3)CC2)cc1F
43	CNS(=O)(=O)NC(=O)c1cc(C2CC2)c(OCC2(C#N)C3CC4CC(C3)CC2C4)cc1F (centres unmarked)
5	CS(=O)(=O)NC(=O)c1cc(C2CC2)c(COC2C3CC4CC(C3)CC2C4)cc1F (centres unmarked)
30	COCCS(=O)(=O)NC(=O)c1cc(C2CC2)c(OCC2(C(F)(F)F)CCCCC2)cc1F
10000	CS(=O)(=O)NC(=O)c1cc(F)c(OCC2CCCNC2)cc1F (centres unmarked)
158	CS(=O)(=O)NC(=O)c1cc(Cl)c(OC[C@H]2CC[C@H](C(F)(F)F)CC2)cc1F
2	O=C(NS(=O)(=O)C1CCC1)c1cc(C2CC2)c(OCC23CC4CC(CC(C4)C2)C3)cc1F [Example 211]
291	CS(=O)(=O)NC(=O)c1cc(Cl)c(OC2CCC(C(F)(F)F)CC2)cc1F (centres unmarked) [Example 128]
33	CCCCCC12CCC(COc3cc(F)c(C(=O)NS(=O)(=O)N(C)C)cc3Cl)(CC1)CC2
1320	CC(C)[C@H]1CC[C@H](C)C[C@@H]1Oc1cc(F)c(C(=O)NS(C)(=O)=O)cc1Cl
6	CS(=O)(=O)NC(=O)c1cc(Cl)c(COC2C3CC4CC(C3)CC2C4)cc1F (centres unmarked)
44	CC1(C)[C@H]2CC[C@@H](COc3cc(F)c(C(=O)NS(C)(=O)=O)cc3Cl)[C@@H]1C2
130	O=C(NS(=O)(=O)CCO)c1cc(Cl)c(OCC23CC4CC(CC(C4)C2)C3)cc1F
3	CC1(COc2cc(F)c(C(=O)NS(=O)(=O)N3CCC3)cc2C2CC2)CCCCC1
270	COC(=O)C12CC3CC(C1)C(Oc1cc(F)c(C(=O)NS(C)(=O)=O)cc1Cl)C(C3)C2 (single isomer, unassigned) [Example 451]

IC50 [nM]	Compound
9	CCCCCC12CCC(COc3cc(F)c(C(=O)NS(C)(=O)=O)cc3Cl)(CC1)CC2
125	CS(=O)(=O)NC(=O)c1cc(Cl)c(OC2CCC3(CCCC3)CC2)cc1F [Example 133]
44	CS(=O)(=O)NC(=O)c1cc(Cl)c(OCC2CCCCCC2)cc1F
7100	CNS(=O)(=O)NC(=O)c1cc(Cl)c(OC2C3CC4CC2CC(C(=O)OC)(C4)C3)cc1F (single isomer, unassigned) [Example 452]
310	CS(=O)(=O)NC(=O)c1cc(Cl)c(OCC2(C#N)C3CC4CC(C3)CC2C4)cc1F (centres unmarked)
26	CNS(=O)(=O)NC(=O)c1cc(Cl)c(COc2ccc3c(c2)CC(C)(C)CC3)cc1F
27	CS(=O)(=O)NC(=O)c1cc(Cl)c(OCC23CC4CC(C2)C(F)(F)C(C4)C3)cc1F
540	CS(=O)(=O)NC(=O)c1cc(Cl)c(OCC23CC4CC(CC(C4)C2)C3)c(Cl)c1
121	CN(C)S(=O)(=O)NC(=O)c1cc(Cl)c(OCC2CCC3(CC2)CC3)cc1F [Example 88, 5-chloro-N-(dimethylsulfamoyl)-2-fluoro-4-(spiro[2.5]octan-6-ylmethoxy)benzamide]
200	O=C(NS(=O)(=O)N1CCC1)c1cc(Cl)c(OCC2CC3C(C2)C3(F)F)cc1F (centres unmarked)
12	COC12CC3CC(CC(COc4cc(F)c(C(=O)NS(C)(=O)=O)cc4C4CC4)(C3)C1)C2
3	CS(=O)(=O)NC(=O)c1cc(C2CC2)c(OCC23CC4CC(CC(F)(C4)C2)C3)cc1F
170	CNS(=O)(=O)NC(=O)c1cc(Cl)c(COc2ccc3c(c2)CCC(C)(C)O3)cc1F
190	O=C(NS(=O)(=O)c1c[nH]cn1)c1cc(Cl)c(OCC23CC4CC(CC(C4)C2)C3)cc1F
880	CNS(=O)(=O)NC(=O)c1cc(Cl)c(OCC2(C#N)C3CC4CC(C3)CC2C4)cc1F (centres unmarked)
58	CC1(C)[C@@H]2CC[C@@H](COc3cc(F)c(C(=O)NS(C)(=O)=O)cc3Cl)[C@H]1C2
166	CN(C)S(=O)(=O)NC(=O)c1cc(Cl)c(OCCC23CC4CC(CC(C4)C2)C3)cc1F
299	CN(C)S(=O)(=O)NC(=O)c1cc(Cl)c(OCC2CCCCCC2)cc1F [Example 100]
12	CCOCCS(=O)(=O)NC(=O)c1cc(C2CC2)c(OCC23CC4CC(CC(C4)C2)C3)cc1F
57	CC(C)[C@H]1CC[C@H](Oc2cc(F)c(C(=O)NS(C)(=O)=O)cc2Cl)CC1
10000	CS(=O)(=O)NC(=O)c1ccc(CNC23CC4CC(CC(C4)C2)C3)c(Cl)c1 [Example 17]

IC50 [nM]	Compound
16.2	CN(C)S(=O)(=O)NC(=O)c1ccc(OCC23CC4CC(CC(C4)C2)C3)c(C2CC2)c1
70	O=C(NS(=O)(=O)N1CCC1)c1cc(C2(O)COC2)c(OCC23CC4CC(CC(C4)C2)C3)cc1F
117	CC1(C)[C@H]2CC=C(COc3cc(F)c(C(=O)NS(C)(=O)=O)cc3Cl)[C@@H]1C2
480	COc1cc(OCC23CC4CC(CC(C4)C2)C3)c(Cl)cc1C(=O)NS(C)(=O)=O [Example 56]
8	O=C(NS(=O)(=O)N1CC(F)C1)c1cc(C2CC2)c(OCC2CCCCC2)cc1F [Example 210]
40	CC(C)OCCS(=O)(=O)NC(=O)c1cc(C2CC2)c(OCC23CC4CC(CC(C4)C2)C3)cc1F
86	CN(C)S(=O)(=O)NC(=O)c1cc(Cl)c(COc2ccc3c(c2)CCC(C)(C)C3)cc1F
17	CS(=O)(=O)NC(=O)c1cc(Cl)c(OCC2C3CC4CC(C3)CC2C4)cc1F (centres unmarked)
4.2	CC1(COc2cc(F)c(C(=O)NS(=O)(=O)N3CC(F)C3)cc2C2CC2)CCCCC1 [Example 447, 5-cyclopropyl-2-fluoro-N-((3-fluoroazetidin-1-yl)sulfonyl)-4-((1-methylcyclohexyl)methoxy)benzamide]
3	O=C(NS(=O)(=O)C1CC1)c1cc(C2CC2)c(OC[C@H]2CC[C@H](C(F)(F)F)CC2)cc1F [Example 435, 5-cyclopropyl-N-(cyclopropylsulfonyl)-2-fluoro-4-(((1r,4r)-4-(trifluoromethyl)cyclohexyl)methoxy)benzamide]
21500	CS(=O)(=O)NC(=O)c1cnc(OCC23CC4(F)CC(F)(CC(F)(C4)C2)C3)c(Cl)c1
10	Cc1cc(C(=O)NS(=O)(=O)N2CCC2)c(F)cc1OCC12CC3CC(CC(C3)C1)C2
140	CS(=O)(=O)NC(=O)c1cc(Cl)c(OCC2CCCCC2)cc1F
28	CS(=O)(=O)NC(=O)c1cc(C2CC2)c(OC2CN(C(c3ccccc3)c3ccccc3)C2)cc1F [Example 439, 4-(1-benzhydrylazetidin-3-yloxy)-5-cyclopropyl-2-fluoro-N-(methylsulfonyl)benzamide]
3.1	CS(=O)(=O)NC(=O)c1cc(C2CC2)c(OCC2C3CC4CC(C3)CC2C4)cc1F (centres unmarked)
603	CS(=O)(=O)NC(=O)c1cc(Cl)c(OCC2(C(F)(F)F)CC2)cc1F
803	COc1ncccc1-c1cc(C(=O)NS(C)(=O)=O)ccc1OCC12CC3CC(CC(C3)C1)C2
21	O=C(NS(=O)(=O)N1CCC1)c1cc(Cl)c(OCC23CC4CC(CC(C4)C2)C3)cc1F
30	O=C(NS(=O)(=O)N1CCC1)c1cc(Cl)c(OCC2(C(F)(F)F)CCCC2)cc1F
12	CC(O)c1cc(C(=O)NS(=O)(=O)N2CCC2)c(F)cc1OCC12CC3CC(CC(C3)C1)C2 (centres unmarked)
160	O=C(NS(=O)(=O)N1CC[C@H](O)C1)c1cc(C2CC2)c(OCC2CCCCC2)cc1F

Compound	IC50 [nM]
5-cyclopropyl-4-((4,4-difluorocyclohexyl)methoxy)-2-fluoro-N-((3-fluoroazetidin-1-yl)sulfonyl)benzamide [Example 212]	2300

Same assay, conditions: read-out: NaV1.7 395 Memb Binding (IC50)

Compound	IC50 [nM]
4-((1-((4-chlorophenyl)(phenyl)methyl)azetidin-3-yl)-methoxy)-5-cyclopropyl-2-fluoro-N-(methylsulfonyl)benzamide [Example 398]	6
